Results published in patent US10104891B2 (priority 2014, dated 2018).

Columns and labels:
Assay type in all cases: in vivo
[1] = test system: Pseudoperonospora cubensis; experiment: Test 2: control effect against cucumber downy mildew; details: control value vs untreated section; for pest or weed control at 4 µg/mL: Pseudoperonospora cubensis, 120 h
How it was run: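 Protective test: zoospores (1.0×10^4 units/ml) misted one day after applying a 4 ppm suspension (wettable powder diluted in 1/5000 Tween20) to 2-leaf cucumber, Sagami hanjiro. After 16 hr at 22° C humid incubation, leaf lesion area read at day 5, expressed as control value versus untreated leaves.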

[2] = test system: Phytophthora infestans; experiment: whole plant or invertebrate; details: for control value (Test 1): tomato late blight, control value vs untreated section; for pest or weed control at 4 µg/mL: Phytophthora infestans, in Solanum lycopersicum, 96 h, read-out: control value (Test 1)
[3] = test system: Plasmopara viticola; experiment: Test 3: control effect against grape downy mildew; details: control value vs untreated section; for pest or weed control at 4 µg/mL: Plasmopara viticola, 120 h
How it was run: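 Leaf lesion area, scored 5 days after inoculation and compared with untreated plants, gives the control value. Inoculation used P. viticola zoospores (1.0×10^4 units/ml) with a 16 hr moist incubation at 22° C. It followed by one day a spray of 4 ppm compound (wettable powder in Tween20) onto Neomuscat seedlings.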

SMILES | control value (Test 2) [1] | control value (Test 1) [2] | control value (Test 3) [3] | pest or weed control at 4 µg/mL [1] | pest or weed control at 4 µg/mL [2] | pest or weed control at 4 µg/mL [3]
Cc1cc(C(F)(F)F)nn1CC(=O)N1CCC(c2nc(C3OCc4cc5ccccc5cc4CO3)cs2)CC1 [Compound 1-10, 4-[4-(1,5-dihydro-3H-2,4-naphthodioxepin-3-yl)-2-thiazolyl]-1-[2-[5-methyl-3-(trifluoromethyl)-1H-pyrazole-1-yl]acetyl]piperidine] | 100 | 100 | 100 |  |  | 
Cc1cc(C(F)(F)F)nn1CC(=O)N1CCC(c2nc(C3OCc4cccc(OS(=O)(=O)C(C)C)c4CO3)cs2)CC1 (stereo not drawn) [Compound 1-28] | 100 | 100 | 100 |  |  | 
Cc1ccc(C)c(NC(=O)N2CCC(c3nc(C4OCc5c(F)ccc(F)c5CO4)cs3)CC2)c1 [Compound 2-15] | 100 | 100 | 100 |  |  | 
CCCCS(=O)(=O)Oc1cccc2c1COC(c1csc(C3CCN(C(=O)Cn4nc(C(F)(F)F)cc4C(F)(F)F)CC3)n1)OC2 (stereo not drawn) [Compound 1-68] | 100 | 100 | 100 |  |  | 
O=C(Cn1nc(C(F)F)cc1C(F)F)N1CCC(c2nc(C3OCc4cccc(OC(F)F)c4CO3)cs2)CC1 (stereo not drawn) [Compound 1-136] | 100 | 100 | 100 |  |  | 
CCCCCCCCS(=O)(=O)Oc1cccc2c1COC(c1csc(C3CCN(C(=O)Cn4nc(C(F)F)cc4C(F)F)CC3)n1)OC2 (stereo not drawn) [Compound 1-59] | 100 | 100 | 100 |  |  | 
Cc1ccc(C)c(CC(=O)N2CCC(c3nc(C4OCc5ccccc5CO4)cs3)CC2)c1 [Compound 2-11] | 100 | 100 | 100 |  |  | 
Cc1cc(C(F)(F)F)nn1CC(=O)N1CCC(c2nc(C3OCc4cccc(F)c4CO3)cs2)CC1 (stereo not drawn) [Compound 1-2] | 100 | 100 | 100 |  |  | 
CCS(=O)(=O)Oc1cccc2c1COC(c1csc(C3CCN(C(=O)Cn4nc(C(F)(F)F)cc4C)CC3)n1)OC2 (stereo not drawn) [Compound 1-7] | 100 | 100 | 100 |  |  | 
Cc1cc(C(F)(F)F)nn1CC(=O)N1CCC(c2nc(C3OCc4c(F)c(F)c(F)c(F)c4CO3)cs2)CC1 [Compound 1-17] | 100 | 100 | 100 |  |  | 
Cc1cc(C(F)(F)F)nn1CC(=O)N1CCC(c2nc(C3OCc4cccc(CO)c4CO3)cs2)CC1 (stereo not drawn) [Compound 1-52] | 100 | 100 | 100 |  |  | 
Cc1cc(C(F)(F)F)nn1CC(=O)N1CCC(c2nc(C3OCc4ccccc4C(C)O3)cs2)CC1 (stereo not drawn) [Compound 1-18] | 100 | 100 | 100 |  |  | 
CS(=O)(=O)Oc1ccc(Cl)c2c1COC(c1csc(C3CCN(C(=O)Cn4nc(C(F)F)cc4C(F)F)CC3)n1)OC2 (stereo not drawn) [Compound 1-116] | 100 | 100 | 100 |  |  | 
O=C(Cn1nc(C(F)(F)F)cc1C(F)(F)F)N1CCC(c2nc(C3OCc4cccc(Br)c4CO3)cs2)CC1 (stereo not drawn) [Compound 1-111] | 100 | 100 | 100 |  |  | 
Cc1cc(OS(C)(=O)=O)c2c(c1C)COC(c1csc(C3CCN(C(=O)Cn4nc(C(F)(F)F)cc4C(F)(F)F)CC3)n1)OC2 (stereo not drawn) [Compound 1-122] | 100 | 100 | 100 |  |  | 
Cc1ccc(C)c(CC(=O)N2CCC(c3nc(C4OCc5c(I)ccc(OS(C)(=O)=O)c5CO4)cs3)CC2)c1 (stereo not drawn) [Compound 2-40] | 100 | 70 | 100 |  |  | 
O=C(Cn1nc(C(F)(F)F)cc1C(F)(F)F)N1CCC(c2nc(C3OCc4cc5ccccc5cc4CO3)cs2)CC1 [Compound 1-89] | 100 | 80 | 100 |  |  | 
O=C(Cn1nc(C(F)(F)F)cc1C(F)(F)F)N1CCC(c2nc(C3OCc4cccc(Cl)c4CO3)cs2)CC1 (stereo not drawn) [Compound 1-93] | 100 | 100 | 100 |  |  | 
O=C(Cn1nc(C(F)(F)F)cc1C(F)(F)F)N1CCC(c2nc(C3OCc4cccc(C=NO)c4CO3)cs2)CC1 (stereo not drawn) [Compound 1-149] | 100 | 100 | 100 |  |  | 

SMILES | control value (Test 2) [1] | control value (Test 1) [2] | control value (Test 3) [3] | pest or weed control at 4 µg/mL [1] | pest or weed control at 4 µg/mL [2] | pest or weed control at 4 µg/mL [3]
Cc1cc(C(F)(F)F)nn1C(C)C(=O)N1CCC(c2nc(C3OCc4c(F)ccc(OS(C)(=O)=O)c4CO3)cs2)CC1 (stereo not drawn) [Compound 1-156] | 100 | 100 | 100 |  |  | 
CS(=O)(=O)Oc1ccc(I)c2c1COC(c1csc(C3CCN(C(=O)Cc4cc(Cl)ccc4Cl)CC3)n1)OC2 (stereo not drawn) [Compound 2-44, 4-[4-(6-iodo-9-methylsulfonyloxy-1,5-dihydro-3H-2,4-benzodioxepin-3-yl)-2-thiazolyl]-1-[2-(2,5-dichlorophenyl)acetyl]piperidine] |  |  |  | 100% | 90% | 100%
O=C(CON=CC(F)(F)F)N1CCC(c2nc(C3OCc4cccc(F)c4CO3)cs2)CC1 (stereo not drawn) [Compound 3-2] | 100 | 100 | 100 |  |  | 
Cc1cc(OS(C)(=O)=O)c2c(c1C)COC(c1csc(C3CCN(C(=O)Cc4cc(Cl)ccc4Cl)CC3)n1)OC2 (stereo not drawn) [Compound 2-32] | 100 | 100 | 100 |  |  | 
CCCCCCCCS(=O)(=O)Oc1cccc2c1COC(c1csc(C3CCN(C(=O)Cn4nc(C(F)(F)F)cc4C)CC3)n1)OC2 (stereo not drawn) [Compound 1-25] | 100 | 100 | 100 |  |  | 
Cc1ccc(OS(C)(=O)=O)c2c1COC(c1csc(C3CCN(C(=O)Cn4nc(C(F)(F)F)cc4C)CC3)n1)OC2 (stereo not drawn) [Compound 1-19] | 100 | 100 | 100 |  |  | 
CCCCS(=O)(=O)Oc1cccc2c1COC(c1csc(C3CCN(C(=O)Cc4cc(C)ccc4C)CC3)n1)OC2 (stereo not drawn) [Compound 2-12, 4-[4-(6-butylsulfonyloxy-1,5-dihydro-3H-2,4-benzodioxepin-3-yl)-2-thiazolyl]-1-[2-(2,5-dimethylphenyl)acetyl]piperidine] |  |  |  | 90% | 80% | 80%
N#Cc1cccc2c1COC(c1csc(C3CCN(C(=O)Cn4nc(C(F)F)cc4C(F)F)CC3)n1)OC2 (stereo not drawn) [Compound 1-148] | 100 | 100 | 100 |  |  | 
CC(C)(C)c1ccc2c(c1)COC(c1csc(C3CCN(C(=O)Cn4nc(C(F)(F)F)cc4C(F)(F)F)CC3)n1)OC2 (stereo not drawn) [Compound 1-92] | 90 | 100 | 90 |  |  | 
Cc1cc(C)n(CC(=O)N2CCC(c3nc(C4OCc5cccc(OS(C)(=O)=O)c5CO4)cs3)CC2)n1 (stereo not drawn) [Compound 1-105] | 100 | 100 | 100 |  |  | 
Cc1ccc(C)c(CC(=O)N2CCC(c3nc(C4OCc5cccc(Br)c5CO4)cs3)CC2)c1 (stereo not drawn) [Compound 2-17] | 100 | 90 | 100 |  |  | 
Cc1cc(C(F)(F)F)nn1CC(=O)N1CCC(c2nc(C3OCc4cccc(OC(F)F)c4CO3)cs2)CC1 (stereo not drawn) [Compound 1-94] | 100 | 100 | 100 |  |  | 
Cc1cc(C(F)(F)F)nn1CC(=O)N1CCC(c2nc(C3OCc4cccc(C#N)c4CO3)cs2)CC1 (stereo not drawn) [Compound 1-104] | 100 | 100 | 100 |  |  | 
CS(=O)(=O)Oc1cccc2c1COC(c1csc(C3CCN(C(=O)Cc4cc(C(F)(F)F)ccc4C(F)(F)F)CC3)n1)OC2 (stereo not drawn) [Compound 2-30, 4-[4-(6-methylsulfonyloxy-1,5-dihydro-3H-2,4-benzodioxepin-3-yl)-2-thiazolyl]-1-[2-[2,5-bis(trifluoromethyl)phenyl]acetyl]piperidine] |  |  |  | 100% | 30% | 100%
Cc1ccc(C)c(CC(=O)N2CCC(c3nc(C4OCc5ccc(F)c(OS(C)(=O)=O)c5CO4)cs3)CC2)c1 (stereo not drawn) [Compound 2-42] | 100 | 90 | 100 |  |  | 
Cc1cc(C(F)F)nn1CC(=O)N1CCC(c2nc(C3OCc4c(F)ccc(OS(C)(=O)=O)c4CO3)cs2)CC1 (stereo not drawn) [Compound 1-153] | 100 | 100 | 100 |  |  | 
Cc1cc(C(F)(F)F)nn1CC(=O)N1CCC(c2nc(C3OCc4c(F)ccc(OS(C)(=O)=O)c4CO3)cs2)CC1C (stereo not drawn) [Compound 1-159] | 100 | 100 | 100 |  |  | 
CS(=O)(=O)Oc1ccc(I)c2c1COC(c1csc(C3CCN(C(=O)Cn4nc(C(F)F)cc4C(F)F)CC3)n1)OC2 (stereo not drawn) [Compound 1-130] | 100 | 100 | 100 |  |  | 
